From US20180111991A1, “MODULATORS OF ACTIVIN AND METHODS FOR MODULATING IMMUNE RESPONSES AND T FOLLICULAR HELPER CELLS” (LA JOLLA INSTITUTE FOR ALLERGY AND IMMUNOLOGY, priority 2014, published 2018)
“Also recorded” adds a separate entry of the source.

Key:
mouse naïve CD4 T cells = assay: Mouse CD4 T cell differentiation; type: cell-based, mouse (BALB/c, C57BL/6)
Protocol: Naïve CD4^+ T cells were isolated from spleen using the Naïve CD4^+ T cell isolation kit (Stem Cell). Purity was 92% or higher. Naïve CD4^+ T cells (2×10^5 cells/well) were cultured for 3 days with recombinant human/mouse/rat activin A (50 ng/ml, R&D Systems), recombinant mouse IL-12 (10 ng/ml, Peprotech), and/or recombinant mouse IL-6 (20 ng/ml, Peprotech) in the presence of plate-bound anti-mouse-CD3 mAb (8 μg/ml, clone 145-2C11, BioXcell) and anti-mouse-CD28 (8 μg/ml, clone 37.51, BioXcell), in RPMI medium, supplemented with 10% fetal bovine serum, GlutaMAX, penicillin/streptomycin, and 2.5 μM β-mercaptoethanol. After 3 days, cells were removed from stimuli and further cultured for 2 additional days in IL-2 (50 U/mL,) and the same cytokine combination used at day 0. Phenotype was quantified by FACS at day 5 of the in vitro culture.

human naïve CD4 T cells [1] = assay: qPCR / flow cytometry of LIF, PRDM1, SLAMF1, ITGβ7 on day 3 differentiated cells; type: cell-based; details: for PRDM1 (BLIMP1) expression: RNA-seq and qPCR
Text: FIG. 2A-O: Activin A plays a synergic role with IL-12 and molds the human Tfh gene program. (A-B) Bead purified naïve CD4 T cells from multiple healthy subjects were stimulated by anti CD3/CD28 beads on 96 well plates, in the presence of commercial human recombinant activin A, with or without IL-12. […] A representative donor is shown in (A). Data from 12 donors from 6 independent experiments are shown in (B). […] Data from one experiment representative of two are depicted (n=3). (D) Cells were cultured in vitro with different doses of activin A combined with a fixed amount of IL-12 for 5 days in the presence of anti-activin A mAb MOR8806 (block) or isotype control mAb (isotype). Graphs show mean and SEM from 3 independent experiments (n=8). Dotted lines indicate the average percentages of PD-1^+CXCR5^+ cells induced by IL-12 with isotype control mAb from 8 donors. (E) CCR7 MFI on day 5 in vitro differentiated cells. […] (J) RNA-seq analysis on day 3 in vitro differentiated cells. The “Volcano” plots show the absolute gene expression data set (RPKM) from cells differentiated with activin A and IL-12 versus cells differentiated with beads only. […] (K) Heat-map showing absolute expression (RPKM) of selected Tfh signature genes on cells differentiated with beads only, IL-12, activin A or activin A+IL12. (L and N) Relative expression (2-ΔCt) of LIF and PRDM1 was determined by qPCR. (M and O) SLAMF1 and ITGβ7 expression by flow cytometry. In (L) to (0) all the data were obtained from day 3 in vitro differentiated cells and are from at least 3 or more independent experiments (n=9 or higher). Bars show mean and SEM. * p<0.05, ** p<0.01 and *** p<0.001. RNA was isolated by QIAGEN RNeasy spin columns and reverse-transcribed into cDNA using Superscript II Reverse Transcriptase (Invitrogen). Quantitative real-time PCR of ACTB, LIF, and PRDM1 was performed using the following primers: ACTB forward, [NT], ACTB reverse, [NT] forward, [NT] reverse, [NT]; and PRDM1 forward, [NT], PRDM1 reverse [NT]. Real-time PCR was set up with Applied Biosystem SYBR Green Master Mix.

human naïve CD4 T cells [2] = assay: CXCL13 ELISA on supernatants of differentiated CD4 T cells; type: cell-based; details: plate bound anti-CD3 and ICOS-L, 5 days
Protocol: Unless differently specified, naïve CD4^+ T cells were enriched from PBMCs by magnetic bead negative selection with the Naïve CD4^+ T Cell Isolation Kit (Stem Cell Technologies). Purity (CD4^+CD45RA^+) was 90% or higher. Cells (7.5×10^4 cells/well) were activated by Dynabeads Human T-Activator CD3/CD28 (2 μl/well, Life Technologies) and cultured with recombinant human/mouse/rat activin A (50 ng/ml or 100 ng/ml), recombinant human IL-12 (5 ng/ml), recombinant human TGFβ (1 ng/ml), recombinant human IL-23 (10 ng/ml) or recombinant human IL-35 (10 ng/ml) in the presence of and recombinant human IL-7 (4 ng/ml) in AIM-V medium (Life Technologies). All cytokines were from R&D System and Peprotech. The 14 kDa mature human beta A chain of human activin A shares 100% amino acid sequence identity with bovine, feline, mouse, porcine, and rat beta A. Phenotype was quantified after 3 or 5 days, as specified in the main text of Figure legends. […] For experiments quantifying supernatant CXCL13 concentration, cells were activated by plate-bound anti-human CD3 (5 μg/ml, BD) and ICOS-L (5 μg/ml, recombinant human B7-H2, R&D). CXCL13 concentrations were determined via human CXCL13 DuoSet ELISA (R&D) on supernatants harvested after 5 days of in vitro culture. […]

SMAD2/3 = assay: Analysis of phosphorylated SMAD2/3 in blood naïve CD4 T cells; type: cell-based, human
Text: Fresh PBMCs and tonsil mononuclear cells were serum-starved over night in AIM-V medium. […] Following stimulation, the cells were fixed in BD Phosflow™ Fix Buffer I (BD Biosciences), then permeabilized using BD Phosflow™ Perm Buffer III (BD Biosciences) following manufacture's instruction.

In the case of “activin A: commercial recombinant cytokine, homodimer of the INHBA gene product (inhibin beta A)”, the “in vitro mouse Tfh differentiation” value (mouse naïve CD4 T cells; activin A in the presence of IL-6) is reported as “did not result in activin A mediated promotion of in vitro mouse Tfh differentiation”, the “PD-1 and CXCR5 expression” value (mouse naïve CD4 T cells; mouse CD4 T cells, activin A alone or with IL-12, C57BL/6 and BALB/c) is reported as “did not have any relevant effect on PD-1 and CXCR5 expression by mouse CD4 T cells; also recorded: No relevant CXCR5 and PD-1 induction” and the “LIF and LTα expression” value (human naïve CD4 T cells [1]; CD4 T cells cultured with activin A) is reported as “enhanced CD4 T cell expression of LIF and LTα”. For the same substance, the “PRDM1 (BLIMP1) expression” value (human naïve CD4 T cells [1]; day 3 differentiated cells) was “express less PRDM1 (Blimp1)”, the “PRDM1 (BLIMP1) expression” value (human naïve CD4 T cells [1]; day 3 differentiated cells, listed as Activin A) was “significant downregulation of PRDM1” and the ITGβ7 expression (human naïve CD4 T cells [1]; day 3 differentiated cells, flow cytometry) was “downregulated in the presence of activin A”. For the same substance, the “CXCL13 expression / secretion” value (human naïve CD4 T cells [2]) was “selectively induces CXCL13 expression”, the “phosphorylation of SMAD2/3” value (SMAD2/3; blood naïve CD4 T cells, activin A 400 ng/ml) was “Phosphorylation of SMAD2/3 in naïve human CD4 T cells in response to activin A was observed” and the “induction of SMAD-independent pathways” value (SMAD2/3; downstream of activin A, time points analyzed) was “No relevant induction of SMAD-independent pathways”.
